Assay results from patent US7135466B2 (Kirin Beer Kabushiki Kaisha, priority 1999, dated 2006).
Where two headings read alike, the source gives them in different places.

Key:
[1] = biological target: T1, PDGF-Ra (Homo sapiens, UniProt P16234); assay: Inhibitory activity against PDGF-Ra phosphorylation by PDGF-AA stimulation using G292; assay type: cell-based; conditions: for IC50: > means inhibition at indicated concentration not more than 50%, < and << not less than 50%, read-out: PDGF (E) IC50; for inhibition at 0.1 µM: G292, read-out: PDGF (E) inhibition (%) at 100 nM
T1 construct: host or cells: G-292 human osteosarcoma cells
T1 sequence (P16234 24-1089): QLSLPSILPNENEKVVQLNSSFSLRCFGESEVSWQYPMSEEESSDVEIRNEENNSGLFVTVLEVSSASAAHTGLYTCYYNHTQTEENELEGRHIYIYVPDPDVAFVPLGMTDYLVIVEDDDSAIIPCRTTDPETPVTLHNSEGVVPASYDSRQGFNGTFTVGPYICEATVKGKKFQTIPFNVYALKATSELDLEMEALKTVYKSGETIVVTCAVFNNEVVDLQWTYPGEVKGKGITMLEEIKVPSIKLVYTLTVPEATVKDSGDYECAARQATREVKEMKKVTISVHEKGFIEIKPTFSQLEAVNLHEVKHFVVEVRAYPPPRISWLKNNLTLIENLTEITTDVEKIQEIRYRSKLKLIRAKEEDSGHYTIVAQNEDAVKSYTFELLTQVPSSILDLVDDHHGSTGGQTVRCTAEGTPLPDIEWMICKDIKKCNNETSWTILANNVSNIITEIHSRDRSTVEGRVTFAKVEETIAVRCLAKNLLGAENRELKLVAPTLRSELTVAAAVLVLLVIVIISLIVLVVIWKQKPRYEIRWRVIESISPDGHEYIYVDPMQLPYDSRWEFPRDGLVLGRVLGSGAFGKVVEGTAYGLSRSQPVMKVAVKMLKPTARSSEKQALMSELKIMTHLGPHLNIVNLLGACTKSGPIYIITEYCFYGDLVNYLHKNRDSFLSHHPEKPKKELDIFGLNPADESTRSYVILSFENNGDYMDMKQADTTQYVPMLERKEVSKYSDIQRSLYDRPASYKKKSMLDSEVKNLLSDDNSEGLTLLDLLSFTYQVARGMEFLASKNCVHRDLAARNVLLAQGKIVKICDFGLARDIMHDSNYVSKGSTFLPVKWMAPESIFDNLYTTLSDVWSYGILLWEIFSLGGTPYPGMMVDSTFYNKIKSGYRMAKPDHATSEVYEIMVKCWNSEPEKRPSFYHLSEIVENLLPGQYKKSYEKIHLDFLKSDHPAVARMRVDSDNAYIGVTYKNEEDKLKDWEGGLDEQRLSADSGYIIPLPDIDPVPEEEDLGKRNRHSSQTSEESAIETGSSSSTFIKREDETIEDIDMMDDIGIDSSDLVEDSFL
Procedure, shortened: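 G-292 human osteosarcoma cells, serum-starved overnight in 0.1% FBS, were pretreated with compound in DMSO for 1 hr at 37 °C, then stimulated with 50 ng/ml PDGF-AA for 5 min. Lysates were captured on anti-phosphotyrosine PY-20 plates and probed with anti-PDGF-Ra plus HRP secondary; absorbance read at 450 nm.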

[2] = biological target: T2, c-kit (Homo sapiens, UniProt P10721); assay: Inhibitory activity against c-kit autophosphorylation (MO7e cells, h-SCF); assay type: cell-based; conditions: for inhibition at 1 µM: Mo7e, at 1000 nM; for IC50: MO7e cells, read-out: c-kit IC50
T2 construct: MO7e (human megakaryocytic leukemia cell line) which had been arrested for 20 hr; endogenous in cells; host or cells: MO7e human megakaryocytic leukemia cell line
T2 sequence (P10721 26-976): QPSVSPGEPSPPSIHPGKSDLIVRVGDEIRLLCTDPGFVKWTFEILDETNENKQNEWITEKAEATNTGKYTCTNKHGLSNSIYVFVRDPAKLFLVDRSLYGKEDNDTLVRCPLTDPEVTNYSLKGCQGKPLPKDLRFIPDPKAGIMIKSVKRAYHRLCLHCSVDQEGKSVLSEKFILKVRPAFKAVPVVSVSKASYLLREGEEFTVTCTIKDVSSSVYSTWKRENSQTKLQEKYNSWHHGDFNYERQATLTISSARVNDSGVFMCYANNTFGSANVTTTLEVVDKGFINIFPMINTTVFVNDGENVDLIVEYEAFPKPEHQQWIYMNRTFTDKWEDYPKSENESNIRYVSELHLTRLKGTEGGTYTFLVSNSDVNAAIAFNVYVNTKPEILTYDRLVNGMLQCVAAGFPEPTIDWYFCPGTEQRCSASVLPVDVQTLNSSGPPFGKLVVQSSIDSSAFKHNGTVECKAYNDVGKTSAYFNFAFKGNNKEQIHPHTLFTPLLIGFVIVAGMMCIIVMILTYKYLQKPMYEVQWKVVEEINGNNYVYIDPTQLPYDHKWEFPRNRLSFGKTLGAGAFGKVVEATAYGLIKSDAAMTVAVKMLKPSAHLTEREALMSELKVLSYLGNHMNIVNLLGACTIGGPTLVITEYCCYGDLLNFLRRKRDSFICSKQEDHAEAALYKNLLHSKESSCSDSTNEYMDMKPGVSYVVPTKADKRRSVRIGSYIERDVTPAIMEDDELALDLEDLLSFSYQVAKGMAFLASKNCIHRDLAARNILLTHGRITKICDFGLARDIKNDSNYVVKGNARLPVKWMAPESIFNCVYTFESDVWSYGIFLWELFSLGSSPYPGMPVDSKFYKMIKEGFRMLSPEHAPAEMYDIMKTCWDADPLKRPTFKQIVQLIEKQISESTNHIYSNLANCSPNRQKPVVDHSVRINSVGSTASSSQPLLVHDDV
Procedure, shortened: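 MO7e cells, arrested for 20 hr, were pretreated with test compound in DMSO for 1 hr and then stimulated with 50 ng/ml h-SCF for 5 min before lysis. Lysates were captured on immobilized anti-phosphotyrosine PY-20, probed with anti-c-kit antibody and HRP anti-rabbit IgG, and read colorimetrically at 450 nm.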

[3] = figure within parentheses in −( ) or >1000( )
[4] = figure within parentheses in >100( ), at 100 nM

Row | Structure (SMILES) | IC50 [1] | IC50 ([1]; Pharmacological Test Example 1) | IC50 ([2]; h-SCF 50 ng/ml) | IC50 ([2]; 50 ng/ml h-SCF) | also measured
1 | COc1cc2nccc(Oc3ccc(NCCCOc4ccccc4C)c(C)c3C)c2cc1OC [Example 890, N-{4-[(6,7-Dimethoxy-4-quinolyl)oxy]-2,3-dimethylphenyl}-N-[3-(2-methylphenoxy)propyl]amine] | 95 nM |  |  |  | inhibition at 1 µM ([2]; figure in parentheses in −( )): 39%
2 | COc1cccc(OC(=O)Nc2cc(C)c(Oc3ccnc4cc(OC)c(OC)cc34)cc2C)c1 [Example 290, 3-Methoxyphenyl N-{4-[(6,7-dimethoxy-4-quinolyl)oxy]-2,5-dimethylphenyl}carbamate] |  | 47 nM | 281 nM |  | 
3 | COc1ccc(C(C)OC(=O)Nc2ccc(Oc3ccnc4cc(OC)c(OC)cc34)cc2)cc1 (stereo not drawn) [Example 32, 1-(4-Methoxyphenyl)ethyl N-{4-[(6,7-dimethoxy-4-quinolyl)oxy]phenyl}carbamate] |  | 16 nM | 227 nM |  | 
4 | COc1cc2ncnc(Oc3ccc(NC(=S)NC(=O)C4CC4c4ccccc4)cc3)c2cc1OC (stereo not drawn) [Example 1060, N-{4-[(6,7-Dimethoxy-4-quinazolinyl)oxy]phenyl}-N′-[(2-phenylcyclopropyl)carbonyl]thiourea] | 39 nM |  |  |  | inhibition at 1 µM ([2]; figure in parentheses in −( )): 30%
5 | COc1cc2nccc(Oc3ccc(NC(=O)OC(C)c4ccc(C)cc4)c(C)c3C)c2cc1OC (stereo not drawn) [Example 133, 1-(4-Methylphenyl)ethyl N-{4-[(6,7-dimethoxy-4-quinolyl)oxy]-2,3-dimethylphenyl}carbamate] |  | 26 nM | 206 nM |  | 
6 | COc1cc2ncnc(Oc3ccc(NC(=O)OC(C)c4cccc(C(F)(F)F)c4)cc3)c2cc1OC (stereo not drawn) [Example 90, 1-[3-(Trifluoromethyl)phenyl]ethyl N-{4-[(6,7-dimethoxy-4-quinazolinyl)oxy]phenyl}carbamate] |  | < 10 nM | 621 nM |  | 
7 | COc1cc2ncnc(Oc3ccc(NC(=S)NC(=O)c4ccc(CCl)cc4)cc3)c2cc1OC [Example 1002, N-[4-(Chloromethyl)benzoyl]-N′-{4-[(6,7-dimethoxy-4-quinazolinyl)oxy]phenyl}thiourea] | < 10 nM |  |  |  | inhibition at 1 µM ([2]; figure in parentheses in −( )): 16%
8 | CCCCN(CCCC)CCNC(=O)Nc1ccc(Oc2ncnc3cc(OC)c(OC)cc23)cc1OC [Example 688, N-[2-(Dibutylamino)ethyl]-N′-{4-[(6,7-dimethoxy-4-quinazolinyl)oxy]-2-methoxyphenyl}urea] | 34 nM |  |  |  | inhibition at 1 µM [2, 3]: 19%
9 | CCCOC(=O)Nc1cc(C)c(Oc2ccnc3cc(OC)c(OC)cc23)cc1C [Example 244, Propyl N-{4-[(6,7-dimethoxy-4-quinolyl)oxy]-2,5-dimethylphenyl}carbamate] |  | 27 nM | 69 nM |  | 
10 | COc1cc2nccc(Oc3cc(C)c(NC(=S)NCCCn4ccnc4)cc3C)c2cc1OC [Example 539] | > 100 nM |  |  | 415 nM | PDGF (E) inhibition (%) at 100 nM [1, 4]: 45%
11 | COc1cc2nccc(Oc3ccc(NC(=S)NC(=O)c4ccc(Cl)s4)c(C)c3)c2cc1OC [Example 694, N-[(5-Chloro-2-thienyl)carbonyl]-N′-{4[(6,7-dimethoxy-4-quinolyl)oxy]-2-methylphenyl}thiourea] | > 100 nM |  |  |  | inhibition at 0.1 µM [1, 4]: 12%; inhibition at 1 µM [2, 3]: 37%
12 | COc1cc2nccc(Oc3cc(C)c(NC(=O)OCCCN4CCOCC4)cc3C)c2cc1OC [Example 422, 3-Morpholinopropyl N-{4-[(6,7-dimethoxy-4-quinolyl)oxy]-2,5-dimethylphenyl}carbamate] | < 10 nM |  |  | 119 nM | 
13 | COc1cc2nccc(Oc3ccc(NC(=O)OCC4CCC4)c(C)c3C)c2cc1OC [Example 387, Cyclobutylmethyl N-{4-[(6,7-dimethoxy-4-quinolyl)oxy]-2,3-dimethylphenyl}carbamate] |  | < 10 nM | 31 nM |  | 
14 | COc1cccc(OCCCOC(=O)Nc2ccc(Oc3ncnc4cc(OC)c(OC)cc34)cc2Cl)c1 [Example 51, 3-(3-Methoxyphenoxy)propyl N-{2-chloro-4-[(6,7-dimethoxy-4-quinazolinyl)oxy]phenyl}carbamate] |  | 14 nM | 270 nM |  | 
15 | COc1cc2nccc(Oc3cc(C)c(NC(=O)OC4CCCN(C)C4)cc3C)c2cc1OC (stereo not drawn) [Example 463, 1-Methyl-3-piperidyl N-{4-[(6,7-dimethoxy-4-quinolyl)oxy]-2,5-dimethylphenyl}carbamate] | 91 nM |  |  | 432 nM | 
16 | COc1cc2nccc(Oc3ccc(NC(=O)OCC4CCC4)cc3)c2cc1OC [Example 385, Cyclobutylmethyl N-{4-[(6,7-dimethoxy-4-quinolyl)oxy]phenyl}carbamate] |  | < 10 nM | 87 nM |  | 

Row | Structure (SMILES) | IC50 [1] | IC50 ([1]; Pharmacological Test Example 1) | IC50 ([2]; h-SCF 50 ng/ml) | IC50 ([2]; 50 ng/ml h-SCF) | also measured
17 | COc1cc2ncnc(Oc3ccc(NC(=O)OCc4ccncc4)cc3)c2cc1OC [Example 434, 4-Pyridylmethyl N-{4-[(6,7-dimethoxy-4-quinazolinyl)oxy]phenyl}carbamate] | 20 nM |  |  | < 30 nM | 
18 | COc1cc2nccc(Oc3ccc(NC(=S)NC(=O)CC4CCCCC4)cc3)c2cc1OC [Example 1023, N-(2-Cyclohexylacetyl)-N′-{4-[(6,7-dimethoxy-4-quinolyl)oxy]phenyl}thiourea] | 22 nM |  |  |  | IC50 ([2]; h-SCF stimulation): 116 nM
19 | COc1cc2ncnc(Oc3ccc(NC(=O)NC4CCN(Cc5ccccc5)CC4)c(Cl)c3)c2cc1OC [Example 637, N-(1-Benzyl-4-piperidyl)-N′-{2-chloro-4-[(6,7-dimethoxy-4-quinazolinyl)oxy]phenyl}urea] | 52 nM |  |  | 375 nM | 
20 | CCC(CC)OC(=O)Nc1cc(C)c(Oc2ccnc3cc(OC)c(OC)cc23)cc1C [Example 359, 1-Ethylpropyl N-{4-[(6,7-dimethoxy-4-quinolyl)oxy]-2,5-dimethylphenyl}carbamate] |  | 28 nM | 274 nM |  | 
21 | COc1ccccc1CC(=O)NC(=S)Nc1ccc(Oc2ccnc3cc(OC)c(OC)cc23)c(Cl)c1 [Example 734, N-{3-Chloro-4-[(6,7-dimethoxy-4-quinolyl)oxy]phenyl}-N′-[2-(2-methoxyphenyl)acetyl]thiourea] | 29 nM |  |  | 216 nM | 
22 | COc1cc2ncnc(Oc3ccc(NC(=O)OCCC4CCCCC4)c(Cl)c3)c2cc1OC [Example 357, 2-Cyclohexylethyl N-{2-chloro-4-[(6,7-dimethoxy-4-quinazolinyl)oxy]phenyl}carbamate] |  | < 10 nM | 116 nM |  | 
23 | COc1cc2nccc(Oc3ccc(NC(=O)OC(C)c4ccc(F)cc4)cc3)c2cc1OC (stereo not drawn) [Example 102, 1-(4-Fluorophenyl)ethyl N-{4-[(6,7-dimethoxy-4-quinolyl)oxy]phenyl}carbamate] |  | < 10 nM | 217 nM |  | 
24 | COc1cc2nccc(Oc3ccc(NC(=O)NCCN4CCCCC4)c(C)c3C)c2cc1OC [Example 675, N-{4-[(6,7-Dimethoxy-4-quinolyl)oxy]-2,3-dimethylphenyl}-N′-(2-piperidinoethyl)urea] | 46 nM |  |  | 442 nM | 
25 | COc1cc2nccc(Oc3ccc(NC(=S)NC(=O)c4ccc(Cl)s4)cc3Cl)c2cc1OC [Example 695, N-{3-Chloro-4-[(6,7-dimethoxy-4-quinolyl)oxy]phenyl}-N′-[(5-chloro-2-thienyl)carbonyl]thiourea] | > 100 nM |  |  |  | inhibition at 0.1 µM [1, 4]: 10%; inhibition at 1 µM [2, 3]: 37%
26 | COc1cc(Oc2ccnc3cc(OC)c(OC)cc23)ccc1NC(=O)NC1CCN(Cc2ccccc2)CC1 [Example 607, N-{4-[(6,7-Dimethoxy-4-quinolyl)oxy]-2-methoxyphenyl}-N′-[4-(N-benzyl)piperidinyl]urea] | 29 nM |  |  | 554 nM | 
27 | COc1ccc(OCCCOC(=O)Nc2ccc(Oc3ccnc4cc(OC)c(OC)cc34)c(C)c2C)cc1 [Example 43, 3-(4-Methoxyphenoxy)propyl N-{4-[(6,7-dimethoxy-4-quinolyl)oxy]-2,3-dimethylphenyl}carbamate] |  | < 10 nM | 158 nM |  | 
28 | COc1cc(Oc2ncnc3cc(OC)c(OC)cc23)ccc1NC(=O)NN1CCCCC1 [Example 596, N-{4-[(6,7-Dimethoxy-4-quinazolinyl)oxy]-2-methoxyphenyl}-N′-(1-piperidinyl)urea] | 63 nM |  |  | 719 nM | 
29 | CCCCCCCCCCCCCCCCCCOC(=O)Nc1ccc(Oc2ccnc3cc(OC)c(OC)cc23)c(C)c1C [Example 328, Octadecyl N-{4-[(6,7-dimethoxy-4-quinolyl)oxy]-2,3-dimethylphenyl}carbamate] |  | > 100 nM |  |  | inhibition at 0.1 µM ([1]; figure in parentheses in >100( ), at 100 nM): 22%; inhibition at 1 µM ([2]; figure in parentheses in −( )): 10%
30 | COc1cc2nccc(Oc3cc(C)c(NC(=O)OCC4CCC4)cc3C)c2cc1OC [Example 386, Cyclobutylmethyl N-{4-[(6,7-dimethoxy-4-quinolyl)oxy]-2,5-dimethylphenyl}carbamate] |  | 20 nM | 105 nM |  | 
31 | COc1cc2nccc(Oc3ccc(NC(=S)NCCN(C)C)c(C)c3C)c2cc1OC [Example 542, N-{4-[(6,7-Dimethoxy-4-quinolyl)oxy]-2,3-dimethylphenyl}-N′-(2-dimethylaminoethyl)thiourea] | > 100 nM |  |  | 442 nM | inhibition at 0.1 µM [1, 4]: 45%
32 | COc1cc2nccc(Oc3ccc(NC(=O)OCCCSc4ccc(C(C)(C)C)cc4)cc3)c2cc1OC [Example 72] |  | 36 nM | 387 nM |  | 
